From patent US11542313B2, “Incretin analogs and uses thereof” (Eli Lilly and Company, priority 2017, dated 2023)
*1 amine or outer side, *2 acyl side, *3 side chain or, on linkers, in order; H or OH if unused. Where a SMILES comes first, the peptide text is derived from it. Side-chain parts run from the residue outwards. [ ]: non-standard residue; d: D form. The star is where a group is joined. C20 diacid = O=C(O)CCCCCCCCCCCCCCCCCCC(=O)*; γGlu = O=C(O)[C@H](CCC(=O)[*:2])N[*:1]; αMeL = CC(C)C[C@](C)(N)C(=O)O; αMeK = C[C@](N)(CCCCN)C(=O)O; AEEA = NCCOCCOCC(=O)O; Aib = CC(C)(N)C(=O)O

Legend:
[1] = biological target: T1, human GIP receptor (GIPR) (Homo sapiens, UniProt P48546); test: Radioligand competition binding (SPA), human GIPR membranes; details: HEK293 membranes, SPA, bacitracin present; mean; read-out: Ki, GIPR
T1 construct: expressed in transfected cells; host or cells: HEK293 (membranes)
T1 sequence (P48546 22-466): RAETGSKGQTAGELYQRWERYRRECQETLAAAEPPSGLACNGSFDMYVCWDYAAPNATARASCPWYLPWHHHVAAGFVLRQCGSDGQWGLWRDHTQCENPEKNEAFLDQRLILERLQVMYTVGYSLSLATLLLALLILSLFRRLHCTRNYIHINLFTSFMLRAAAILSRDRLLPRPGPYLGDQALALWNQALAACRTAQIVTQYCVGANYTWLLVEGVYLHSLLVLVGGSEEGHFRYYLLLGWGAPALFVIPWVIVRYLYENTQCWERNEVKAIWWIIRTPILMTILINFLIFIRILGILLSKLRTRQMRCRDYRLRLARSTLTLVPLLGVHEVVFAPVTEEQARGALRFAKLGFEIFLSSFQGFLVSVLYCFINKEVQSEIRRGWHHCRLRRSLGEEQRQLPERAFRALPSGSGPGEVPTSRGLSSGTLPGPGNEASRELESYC
Source text: (§1) Radioligand competition binding assays are run to determine the equilibrium dissociation constant for exemplary compounds and comparator molecules.
(§2) Competition curves are plotted as the percent specific inhibition (y-axis) versus log concentration of compound (x-axis) and analyzed using a four parameter nonlinear regression fit with variable slope (ABase or Genedata).

GLP-1 receptor (GLP-1R) = biological target: T2, GLP-1 receptor (GLP-1R) (Homo sapiens, UniProt P43220); test: Radioligand competition binding (SPA), human GLP-1R membranes; details: HEK293 membranes, SPA, bacitracin present; mean; read-out: Ki, GLP-1R
T2 construct: expressed in transfected cells; host or cells: HEK293 (membranes)
T2 sequence (P43220 24-463): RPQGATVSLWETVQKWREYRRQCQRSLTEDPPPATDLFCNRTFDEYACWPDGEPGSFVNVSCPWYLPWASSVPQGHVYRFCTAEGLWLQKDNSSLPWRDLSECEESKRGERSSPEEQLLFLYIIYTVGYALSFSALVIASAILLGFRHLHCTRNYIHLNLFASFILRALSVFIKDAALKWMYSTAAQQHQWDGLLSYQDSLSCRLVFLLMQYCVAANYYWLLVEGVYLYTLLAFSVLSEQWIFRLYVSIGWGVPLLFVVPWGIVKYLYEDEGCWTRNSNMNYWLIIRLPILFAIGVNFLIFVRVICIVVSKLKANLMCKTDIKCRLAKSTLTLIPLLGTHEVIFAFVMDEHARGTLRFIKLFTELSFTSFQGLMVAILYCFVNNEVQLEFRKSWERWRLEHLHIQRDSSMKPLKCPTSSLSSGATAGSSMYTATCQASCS
Source text: as §1, §2

hGcgR = biological target: T3, hGcgR (Homo sapiens, UniProt P47871); test: cAMP assay in HEK293 cells expressing hGcgR, 0.1% casein; format: cell-based; details: in the presence of 0.1% casein; read-out: cAMP EC50, GcGR
T3 construct: expressed in transfected cells; host or cells: HEK293
T3 sequence (P47871 26-477): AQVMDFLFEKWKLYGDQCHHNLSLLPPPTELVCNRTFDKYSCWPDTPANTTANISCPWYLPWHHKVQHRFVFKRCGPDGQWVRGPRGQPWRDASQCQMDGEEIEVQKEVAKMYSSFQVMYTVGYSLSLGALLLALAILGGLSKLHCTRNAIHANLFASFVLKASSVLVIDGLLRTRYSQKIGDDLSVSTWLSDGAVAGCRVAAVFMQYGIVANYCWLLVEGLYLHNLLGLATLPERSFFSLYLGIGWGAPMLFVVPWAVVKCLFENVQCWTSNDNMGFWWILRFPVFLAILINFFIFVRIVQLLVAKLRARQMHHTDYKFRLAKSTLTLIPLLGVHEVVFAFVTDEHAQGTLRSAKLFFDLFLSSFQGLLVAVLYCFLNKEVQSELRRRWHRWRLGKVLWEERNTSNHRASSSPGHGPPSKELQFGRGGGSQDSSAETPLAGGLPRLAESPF

[2] = rat, in vivo, sc, 100 nmol/kg
Procedure: (§3) The pharmacokinetics of the exemplary analogs are evaluated following a single subcutaneous administration of 100 nM/kg to male Sprague Dawley rats. Blood samples are collected over 120 hours, and resulting individual plasma concentrations are used to calculate pharmacokinetic parameters. Peptide plasma (K3 EDTA) concentrations are determined using a qualified LC/MS method that measured the intact mass of the analog. Each peptide and an analog as an internal standard are extracted from 100% specie specified plasma using methanol with 0.1% formic acid. A Thermo Q-Exactive, High Resolution Instrument, and a Thermo Easy Spray PepMap are combined for LC/MS detection.

hGIPR = biological target: T4, hGIPR (Homo sapiens, UniProt P48546); test: cAMP assay in HEK293 cells expressing hGIPR, 0.1% casein; format: cell-based; details: in the presence of 0.1% casein; read-out: cAMP EC50, GIPR
T4 construct: expressed in transfected cells; host or cells: HEK293
T4 sequence (P48546 22-466): T1 sequence (P48546 22-466)

in vivo = details: male, Sprague-Dawley, rat, sc, 100 nmol/kg
Procedure: as §3

[3] = biological target: T5, human glucagon receptor (GcgR) (Homo sapiens, UniProt P47871); test: Radioligand competition binding (SPA), human GcgR membranes; details: HEK293 membranes, SPA, bacitracin present; mean; read-out: Ki, GcgR
T5 construct: expressed in transfected cells; host or cells: HEK293 (membranes)
T5 sequence (P47871 26-477): as above
Source text: as §1, §2

hGLP-1R = hGLP-1R (Homo sapiens, UniProt P43220); test: cAMP assay in HEK293 cells expressing hGLP-1R, 0.1% casein; format: cell-based; details: in the presence of 0.1% casein; read-out: cAMP EC50, GLP-1R
Sequence of hGLP-1R (P43220 24-463): as the sequence (P43220 24-463) above

Question: With `CC[C@H](C)[C@H](NC(=O)[C@H](Cc1ccccc1)NC(=O)[C@H](C)NC(=O)C(C)(C)NC(=O)[C@H](CCC(N)=O)NC(=O)[C@H](C)NC(=O)[C@H](CCCCNC(=O)COCCOCCNC(=O)CC[C@H](NC(=O)CCCCCCCCCCCCCCCCCCC(=O)O)C(=O)O)NC(=O)[C@H](CCCCN)NC(=O)[C@H](CC(=O)O)NC(=O)[C@H](CC(C)C)NC(=O)[C@](C)(CC(C)C)NC(=O)[C@@H](NC(=O)[C@H](CO)NC(=O)[C@H](Cc1ccc(O)cc1)NC(=O)[C@H](CC(=O)O)NC(=O)[C@H](CO)NC(=O)[C@@H](NC(=O)[C@H](Cc1ccccc1)NC(=O)[C@@H](NC(=O)CNC(=O)[C@H](CCC(N)=O)NC(=O)C(C)(C)NC(=O)[C@@H](N)Cc1ccc(O)cc1)[C@@H](C)O)[C@@H](C)O)[C@@H](C)CC)C(=O)N[C@@H](CCC(=O)O)C(=O)N[C@@H](Cc1ccc(O)cc1)C(=O)N[C@@H](CC(C)C)C(=O)N[C@@H](CC(C)C)C(=O)N[C@@H](CCC(=O)O)C(=O)NC(C)(C)C(=O)NCC(=O)N1CCC[C@H]1C(=O)N[C@@H](CO)C(=O)N[C@@H](CO)C(=O)NCC(=O)N[C@@H](C)C(=O)N1CCC[C@H]1C(=O)N1CCC[C@H]1C(=O)N1CCC[C@H]1C(=O)N[C@@H](CO)C(N)=O` [Example 13] (H-Y[Aib]QGTFTSDYSI[αMeL]LDKK([AEEA-γGlu-C20 diacid])AQ[Aib]AFIEYLLE[Aib]GPSSGAPPPS-NH2) as the compound, how does the Ki [1] read?
Answer: Its Ki is 0.0452 nM.

Question: And the Ki (GLP-1 receptor (GLP-1R))?
Answer: The Ki was 6.43 nM.

Question: And the EC50 (hGcgR)?
Answer: Its EC50 is 0.0815 nM.

Question: And the AUCINF_D_obs [2]?
Answer: Its AUCINF_D_obs is 205.7 hr*kg*nmol/L/nmol.

Question: What about the EC50 (hGIPR) of the same compound?
Answer: Its EC50 is 0.0391 nM.

Question: And the CL/F (in vivo)?
Answer: Its CL/F is 0.0817 mL/min/kg.

Question: What about the Tmax (in vivo) of the same compound?
Answer: Its Tmax is 20 h.

Question: What about the half-life (in vivo) of the same compound?
Answer: Its half-life is 21.7 h.

Question: And the Ki [3]?
Answer: Its Ki is 1.91 nM.

Question: And the EC50 (hGLP-1R)?
Answer: Its EC50 is 0.125 nM.

Question: Which Ki [1] does the source give for `CC[C@H](C)[C@H](NC(=O)[C@H](Cc1ccccc1)NC(=O)[C@H](C)NC(=O)[C@](C)(CCCCN)NC(=O)[C@H](CCC(N)=O)NC(=O)[C@H](C)NC(=O)[C@H](CCCCNC(=O)COCCOCCNC(=O)COCCOCCNC(=O)CC[C@H](NC(=O)CCCCCCCCCCCCCCCCCCC(=O)O)C(=O)O)NC(=O)[C@H](CCCCN)NC(=O)[C@H](CC(=O)O)NC(=O)[C@H](CC(C)C)NC(=O)[C@](C)(CC(C)C)NC(=O)[C@@H](NC(=O)[C@H](CO)NC(=O)[C@H](Cc1ccc(O)cc1)NC(=O)[C@H](CC(=O)O)NC(=O)[C@H](CO)NC(=O)[C@@H](NC(=O)[C@H](Cc1ccccc1)NC(=O)[C@@H](NC(=O)CNC(=O)[C@H](CCC(N)=O)NC(=O)C(C)(C)NC(=O)[C@@H](N)Cc1ccc(O)cc1)[C@@H](C)O)[C@@H](C)O)[C@@H](C)CC)C(=O)N[C@@H](CCC(=O)O)C(=O)N[C@@H](Cc1ccc(O)cc1)C(=O)N[C@@H](CC(C)C)C(=O)N[C@@H](CC(C)C)C(=O)N[C@@H](C)C(=O)NC(C)(C)C(=O)NCC(=O)N1CCC[C@H]1C(=O)N[C@@H](CO)C(=O)N[C@@H](CO)C(=O)NCC(=O)N[C@@H](C)C(=O)N1CCC[C@H]1C(=O)N1CCC[C@H]1C(=O)N1CCC[C@H]1C(=O)N[C@@H](CO)C(N)=O` [Example 1] (H-Y[Aib]QGTFTSDYSI[αMeL]LDKK([AEEA-AEEA-γGlu-C20 diacid])AQ[αMeK]AFIEYLLA[Aib]GPSSGAPPPS-NH2; N-terminus assumed) here?
Answer: The Ki was 0.0469 nM.

Question: And the Ki (GLP-1 receptor (GLP-1R))?
Answer: The Ki was 2.64 nM.

Question: What about the EC50 (hGcgR) of the same compound?
Answer: The EC50 was 0.114 nM.

Question: And the AUCINF_D_obs [2]?
Answer: The AUCINF_D_obs was 95.7 hr*kg*nmol/L/nmol.

Question: What about the EC50 (hGIPR) of the same compound?
Answer: The EC50 was 0.0523 nM.

Question: And the CL/F (in vivo)?
Answer: Its CL/F is 0.173 mL/min/kg.

Question: What about the Tmax (in vivo) of the same compound?
Answer: Its Tmax is 8 h.

Question: And the half-life (in vivo)?
Answer: The half-life was 11.7 h.

Question: And the Ki [3]?
Answer: Its Ki is 8.41 nM.

Question: What about the EC50 (hGLP-1R) of the same compound?
Answer: Its EC50 is 0.153 nM.
